Common to all, as to assay: growth of human tumour cells (NCI), 48 h
The test system of test [1] is OVCAR-5 ovarian.
The test system of test [2] is EKVX NSCLC.
The test system of test [3] is HCC-2998 colon.
Test [4] concerns NCI/ADR-RES ovarian.
For test [5], the system named is RXF 393 renal.
Test [6] concerns IGROV1 ovarian.
The test system of test [7] is UACC-62 melanoma.
Test [8] concerns SK-OV-3 ovarian.
Test [9] has as its system NCI-H522 lung.

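Briefly, cells in 96-well plates were exposed to five compound concentrations for 48 h, and endpoints were estimated by linear interpolation. GI50 is the concentration that inhibits growth by half. TGI: total growth inhibition.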

Consider `Cc1ccc(N=Nc2cc(=O)[nH]c(=O)[nH]2)cc1C`, for which the TGI in test [1] is 28.8 µM; in test [2], 34.7 µM; in [3], 19.9 µM; in [4], over 100 µM; in [5] it was 24.9 µM; in test [6] it was 26.9 µM.

Turning to `CCOC(=O)Cn1c(C)nc2nn(Cc3ccccc3)cc2c1=O`, the TGI in [7], in test [1], in test [2], in [8], in [3] and in [4] was over 100 µM throughout. Moreover, the TGI in test [5] and in [6] was over 100 µM throughout.

On to `CCCCC[C@@H]1OC(=O)[C@@]2(CC3c4ccccc4C2c2ccccc23)[C@H]1C(=O)OC`, for which the TGI in [7], in test [1], in [2], in test [8], in test [3] and in [4] was over 100 µM each time. Also, the TGI in test [5] and in [6] was over 100 µM in each case.

Consider `Cc1cccc(-c2cc(=O)c3c(C)ccnc3[nH]2)c1`, for which the TGI in test [7] is over 100 µM; in [1] it was over 100 µM; in test [2], over 100 µM; in test [9] it was 0.798 µM; in [8] it was over 100 µM; in test [3], 11.1 µM. For the same molecule, the TGI in test [5] and in test [6] was over 100 µM each time.

In the case of `Fc1ccccc1C1SCC2=Nc3ccccc3CN21` (stereo not given), the TGI in [7], in test [1], in [2], in test [8], in test [3] and in test [4] was over 100 µM in each case. This molecule returned a TGI in [5] of over 100 µM.

For the molecule `Cc1cn(C2CC(O)C(Cn3cc(Cn4nc(Br)c(=O)[nH]c4=O)nn3)O2)c(=O)[nH]c1=O` (stereo not given), the TGI in test [7], in test [1], in [2], in [8], in test [3] and in test [4] was over 100 µM throughout. The same molecule came in with a TGI in [5] of over 100 µM.

Consider `O=C(O)C1(Cc2ccc3c(c2)CCC3)Cc2cc3c(cc2C1)CCC3`, for which the TGI in test [7], in test [1], in test [2], in test [8], in test [3] and in [6] was over 100 µM in each case.

Take `CC(C)=CCC/C(C)=C/CCC1(C)C2COC(=O)C21` (stereo not given): the TGI in [7], in [1], in test [2], in [9], in [8] and in test [3] was over 100 µM in each case. In addition, the TGI in test [5] and in [6] was over 100 µM in each case.

Regarding `Cc1ccc(Oc2cc(C)ccc2P(=O)(O)O)cc1`, the TGI in test [7], in [2], in test [9], in test [8], in test [3] and in test [5] was over 100 µM throughout. The molecule also registered a TGI in [6] of over 100 µM.

With `CCCCN=C(OC1C=CCCC1)SC` (stereo not given), the TGI in [7], in [1], in [2], in test [8], in [3] and in test [4] was over 100 µM throughout. For the same molecule, the TGI in test [6] is over 100 µM.

For the molecule `Brc1ccc2[nH]cc(-c3nc(-c4c[nH]c5ccncc45)cs3)c2c1`, the GI50 in test [1] is 1.79 µM; in [8], 1.65 µM; in test [3] it was 1.98 µM; in test [5], 1.49 µM. The TGI in [1] turned out to be 3.21 µM; in test [8], 3.03 µM; in test [3], 3.6 µM; in [5], 2.87 µM.

For `CC(C)(C)OC(=O)N[C@@H](Cc1ccccc1)C(=O)N1CC[C@@H](C(=O)N2[C@H]3CC4CC[C@@]3(CS2(=O)=O)C4(C)C)N1`, the TGI in test [7], in test [1], in test [8], in test [3], in test [4] and in [5] was over 100 µM each time.

Regarding `CCn1c2ccccc2c2cc(NC(=O)c3c(C)[nH]c(=O)[nH]c3=S)ccc21`, the TGI in test [7] was over 100 µM; in test [1], 68.2 µM; in test [8], over 100 µM; in test [3] it was over 100 µM; in test [4], over 100 µM; in [5], over 100 µM.

Consider `CC1(C)CN=C(c2ccc3ccccc3c2O)N1`, for which the TGI in test [7], in [1], in test [2], in test [3], in test [4] and in test [6] was over 100 µM each time.

Turning to `O=c1oc2ccccc2cc1-c1nc2ccccc2s1`, the TGI is 65.3 µM in test [1]; 39.2 µM in test [2]; 21.5 µM in test [9]; 23.7 µM in test [8]; over 100 µM in test [3]; 24.2 µM in [5]. This molecule came in with a TGI in [6] of 18.6 µM.

For the origin of these results see PubChem BioAssay (NCI).
